From US9408871B2, “Methods for inhibiting complement activation and uses thereof” (THE UNIVERSITY OF BRITISH COLUMBIA, priority 2013, dated 2016) come the findings set out here.

Test [1] deals with TP complement components (C5b,6, C7, C8, C9). Put plainly: terminal pathway hemolytic assay using purified complement components. The class given is cell-based, human. Conditions: cRBC, purified C5b,6, C7, C8, C9. As for the experimental part: For serum-based terminal pathway (TP) hemolytic assays, components were diluted in GVB containing 10 mM EDTA (GVB-E), the latter added to prevent upstream complement activation and generation of endogenous C5b,6. 2% NHS was used as the source of C7, C8, and C9, and hemolysis of chicken erythrocytes (cRBC) (3.3×10^8 cells/mL) was initiated by addition of exogenous purified C5b,6, the concentration of which was determined from pilot studies to yield ˜70-80% lysis at 30 min. No C5b,6 activity was detected in the NHS prior to initiating the reaction. For some experiments, instead of NHS, purified terminal pathway complement components were used in the TP assays. In these assays, in a final volume of 300 uL GVB, lysis was achieved by the sequential addition of the following components: cRBC (3.3×10^8 cells/mL), C5b,6 (20 μM), C7 (15 nM), C8 (10 nM), and C9 (25 nM). The unlysed cell pellet was removed by centrifugation and lysis was measured immediately after the 30-minute reaction. […]
A standard curve for the terminal pathway assay using purified complement components (FIG. 3) was generated using C7 (15 nM), C8 (10 nM), and C9 (25 nM) in excess, and hemolysis of chicken erythrocytes after 30 min at 37° C. was determined as dependent on the concentration of purified C5b,6. […]

Test [2] concerns the target T1, C1-esterase inhibitor (C1-inh) (Homo sapiens, UniProt P05155).
T1 sequence (P05155 23-500): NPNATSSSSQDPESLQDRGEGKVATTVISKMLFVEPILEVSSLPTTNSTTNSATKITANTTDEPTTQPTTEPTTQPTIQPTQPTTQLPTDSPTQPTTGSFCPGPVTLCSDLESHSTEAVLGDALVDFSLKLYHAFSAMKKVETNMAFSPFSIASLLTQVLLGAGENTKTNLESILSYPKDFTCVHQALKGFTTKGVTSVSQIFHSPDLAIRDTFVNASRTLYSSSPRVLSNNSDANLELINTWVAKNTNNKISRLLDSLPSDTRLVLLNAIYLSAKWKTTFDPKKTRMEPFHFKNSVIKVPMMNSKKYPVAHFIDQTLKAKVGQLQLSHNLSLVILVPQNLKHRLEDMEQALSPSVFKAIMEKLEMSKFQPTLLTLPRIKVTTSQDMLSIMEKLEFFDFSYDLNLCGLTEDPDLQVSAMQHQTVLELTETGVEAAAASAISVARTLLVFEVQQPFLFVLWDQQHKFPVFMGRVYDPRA
Put plainly: C1s-mediated cleavage of C2 in the presence of C1-inh (SDS-PAGE). The class given is biochemical. Conditions: 10-500 μM, 6 nM C1s, 5 nM C1-inh. The procedure:
We tested whether polyP affects the inhibitory properties of C1-inh on C1s-mediated cleavage and activation of complement factor C4 and C2. SDS-PAGE followed by coomassie staining of gels was used to monitor cleavage of C4 by C1s in the presence/absence of C1-inh and/or polyP in a purified system.
Briefly, 6 nM C1s with 10-500 μM of polyP1000 were incubated in 20 mM Hepes, 0.15 M NaCl, pH 7.5, 0.01% Tween buffer for 90 minutes at 37° C. 5 nM C1-inh was added and incubated for 30 minutes. C2 was added and incubated for 5 minutes at 37° C. The reactions were quenched with 5× loading buffer and β-ME.

Take `O=P(O)(O)O` [P1, Orthophosphate]: in test [1], the “effect on erythrocyte lysis, purified TP components” value was “had no effect”. In test [2], the “effect on activity of C1-inh in interfering with C1s-mediated cleavage of C2” value is “had no effect”.
